Experimental findings from patent publication US5945436A, “Pyridylmethyl nitriles, amides and thioamides useful as fungicides” (Uniroyal Chemical Company, Inc., priority 1997, dated 1999) are described below.

For orientation: inhibition means the change of the read-out against control, counted positive when it falls.

Molecules are shown by their SMILES.

One assay has as its system Rhizoctonia solani. Description: Fungal growth inhibition, treated disc on agar (RHI SOL). Conditions: disc dipped in 500 mg/l, 29° C.; for inhibition at 500 µg/mL: Rhizoctonia solani, read-out: Percent Growth Inhibition, RHI SOL. It is filed as cell-based.
Assay [1] deals with Erysiphe graminis. Description: Powdery mildew of barley, systemic root uptake (BMS). It is filed as in vivo. The note with it: 45 ml of 250 mg/l, 8 days after inoculation. The gist of the method:
(§1)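 Pot soil of barley (BMS) and cucumber (CMS) plants was drenched with 45 ml of a 250 mg/l acetone/Tween 20 aqueous emulsion, with untreated plants as controls. Disease was scored on a rating scale that included intermediate grades.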

A further assay concerns Septoria nodorum. Description: Fungal growth inhibition, treated disc on agar (SEP NOD). It is filed as cell-based. The note with it: disc dipped in 500 mg/l, 29° C.; for inhibition at 500 µg/mL: Parastagonospora nodorum, read-out: Percent Growth Inhibition, SEP NOD.
The test system of assay [2] is Erysiphe graminis. Description: Powdery mildew in barley, foliar application (ERY GRA). The note with it: foliar, 1,000 mg/l, 8 days after inoculation; for pest or weed control at 1000 µg/mL: Blumeria graminis, foliar, 192 h, read-out: Percent Reduction of Disease, ERY GRA. It is filed as in vivo. In a few lines: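 'Robust' barley plants sprayed with acetone/TWEEN 20 aqueous emulsion at 1,000 mg/l, dried, then kept at 21° C in a greenhouse. Inoculated by distributing Erysiphe graminis spores from infected plants. Percent control computed from disease scores vs unsprayed control pots.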

Assay [3] deals with Cercosporidium personatum. Description: Fungal germination and growth, treated disc on agar, scored (CER PER). It is filed as cell-based. Details: key: 100: Complete inhibition of germination and growth.; 80: Nearly complete inhibition but some growth.; 50: Partial inhibition of growth or, early complete inhibition but later growth begins.; 20: Some inhibition of growth, but not significant.; 0: No inhibition of growth. Conditions: disc dipped in 500 mg/l, 29° C., numerical score 0-100, spore suspension. In a few lines: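 Acetone test solutions dried on 11 mm filter paper discs, placed on agar; two drops of C. personatum spore suspension (20,000 spores/ml) applied per disc. Plates incubated at 29° C; germination and growth scored 0 (no inhibition) to 100 (complete inhibition), untreated discs as controls.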

For a further assay, the system named is Erysiphe cichoracearum. Description: Powdery mildew of cucumber, systemic root uptake (CMS). It is filed as in vivo. The note with it: 45 ml of 250 mg/l, 8 days after inoculation. The gist of the method:
as §1

Another assay deals with Helminthosporium sativum. Description: Barley spot blotch, foliar treatment (HEL SAT). It is filed as in vivo. Conditions: foliar, 1,000 mg/l; for pest or weed control at 1000 µg/mL: Helminthosporium, foliar, 216 h, read-out: Percent Reduction of Disease, HEL SAT. In a few lines: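 Six-day-old "Robust" barley, 10 plants per pot, sprayed at 1,000 mg/l (acetone solution emulsified in water with TWEEN 20) or left unsprayed as controls. All plants then inoculated with H. sativum spores, held 24 h at 99% humidity, then 8 days in greenhouse at 21° C. Percent control computed.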

The subject of the next assay is Pyricularia oryzae. Description: whole plant or invertebrate. It is filed as in vivo. The note with it: for pest or weed control at 1000 µg/mL: Pyricularia oryzae, in Hordeum vulgare, foliar, 216 h, read-out: Percent Reduction of Disease, PYR ORY, barley, foliar, 1,000 mg/l.
The test system of a further assay is Fusarium oxysporum. Description: Fungal growth inhibition, treated disc on agar (FUS OXY). It is filed as cell-based. The note with it: disc dipped in 500 mg/l, 29° C.; for inhibition at 500 µg/mL: Fusarium oxysporum, read-out: Percent Growth Inhibition, FUS OXY.

`CCCCC(C#N)(CCc1ccc(OCC)cc1)c1cccnc1` (stereo not drawn) [Compound 35]: the inhibition at 500 µg/mL in the assay on Rhizoctonia solani is 40%; in the assay with Septoria nodorum, 90%. Besides, the “Percent Reduction of Disease, BMS” value in the assay on Erysiphe graminis [1] was determined as 0%. Further, the pest or weed control at 1000 µg/mL in the assay with Erysiphe graminis [2] turned out to be 85%; in the assay on Helminthosporium sativum, 100%; in the assay on Pyricularia oryzae, 55%. Further, the “CER PER inhibition score” value in [3] was 0. In addition, the “Percent Reduction of Disease, CMS” value in the assay on Erysiphe cichoracearum is 0%. In addition, the “Percent Growth Inhibition, FUS OXY” value with Fusarium oxysporum was found to be 30%.
On to `CCCCCCC(C#N)(CCc1ccc(OC)cc1)c1cccnc1` (stereo not drawn) [Compound 36], for which the results for the inhibition at 500 µg/mL in the assay on Rhizoctonia solani, in the assay with Septoria nodorum and with Fusarium oxysporum were 25%, 96% and 80%, respectively. Besides, the “Percent Reduction of Disease, BMS” value in the assay on Erysiphe graminis [1] was 0%. The pest or weed control at 1000 µg/mL with Erysiphe graminis [2] amounted to 85%; in the assay on Helminthosporium sativum, 100%; in the assay on Pyricularia oryzae, 90%. Further, the “CER PER inhibition score” value in [3] turned out to be 0. Also, in the assay with Erysiphe cichoracearum, the “Percent Reduction of Disease, CMS” value was 0%.
In the case of `COc1ccc(CCC(C#N)(CC2CC2)c2cccnc2)cc1` (stereo not drawn) [Compound 37], the inhibition at 500 µg/mL in the assay on Rhizoctonia solani came to 13%; in the assay on Septoria nodorum, 100%; in the assay with Fusarium oxysporum, 100%. Moreover, the “Percent Reduction of Disease, BMS” value in the assay on Erysiphe graminis [1] is recorded as 0%. The pest or weed control at 1000 µg/mL in the assay on Erysiphe graminis [2] was determined as 92%; with Helminthosporium sativum it was 100%; in the assay with Pyricularia oryzae, 100%. For the same compound, in assay [3], the “CER PER inhibition score” value is on record as 0. In addition, the “Percent Reduction of Disease, CMS” value in the assay on Erysiphe cichoracearum is 0%.
With `C#CCC(C#N)(CCc1ccc(OC)cc1)c1cccnc1` (stereo not drawn) [Compound 38], the inhibition at 500 µg/mL in the assay with Rhizoctonia solani worked out at 0%; with Septoria nodorum, 100%; in the assay on Fusarium oxysporum, 100%. Moreover, in the assay with Erysiphe graminis [1], the “Percent Reduction of Disease, BMS” value turned out to be 0%. Further, the pest or weed control at 1000 µg/mL came out at 83% in the assay on Erysiphe graminis [2], 100% in the assay on Helminthosporium sativum and 17% in the assay with Pyricularia oryzae. In addition, in assay [3], the “CER PER inhibition score” value is recorded as 0. Moreover, the “Percent Reduction of Disease, CMS” value with Erysiphe cichoracearum is listed as 0%.
Consider `CC(C)CC(C#N)(CCc1ccc(F)cc1)c1cccnc1` (stereo not drawn) [Compound 39], for which the inhibition at 500 µg/mL with Rhizoctonia solani turned out to be 11%; in the assay with Septoria nodorum, 8%; with Fusarium oxysporum, 30%. For the same compound, the “Percent Reduction of Disease, BMS” value in the assay with Erysiphe graminis [1] came out at 0%. Moreover, the pest or weed control at 1000 µg/mL in the assay on Erysiphe graminis [2] was 92%; in the assay with Helminthosporium sativum it was 100%; in the assay on Pyricularia oryzae it was 100%. Moreover, the “CER PER inhibition score” value in [3] turned out to be 0. The “Percent Reduction of Disease, CMS” value in the assay with Erysiphe cichoracearum was 0%.
As to `C=CCC(C#N)(CCc1ccc(OCC)cc1)c1cccnc1` (stereo not drawn) [Compound 40], the inhibition at 500 µg/mL in the assay with Rhizoctonia solani stood at 0%; in the assay with Septoria nodorum, 100%; in the assay on Fusarium oxysporum, 100%. The “Percent Reduction of Disease, BMS” value with Erysiphe graminis [1] was determined as 0%. Moreover, the pest or weed control at 1000 µg/mL in the assay on Erysiphe graminis [2] came out at 67%; in the assay on Helminthosporium sativum, 100%; with Pyricularia oryzae, 92%. Further, the “CER PER inhibition score” value in assay [3] is 0. Besides, in the assay on Erysiphe cichoracearum, the “Percent Reduction of Disease, CMS” value is recorded as 0%.
Consider `C#CCC(C#N)(CCc1ccc(F)cc1)c1cccnc1` (stereo not drawn) [Compound 41], for which the inhibition at 500 µg/mL in the assay with Rhizoctonia solani stood at 26%; in the assay with Septoria nodorum, 63%; with Fusarium oxysporum it was 30%. The “Percent Reduction of Disease, BMS” value in the assay with Erysiphe graminis [1] amounted to 0%. The results for the pest or weed control at 1000 µg/mL in the assay with Erysiphe graminis [2], in the assay with Helminthosporium sativum and in the assay on Pyricularia oryzae were 92%, 100% and 92%, respectively. In addition, the “CER PER inhibition score” value in [3] came out at 0. For the same compound, the “Percent Reduction of Disease, CMS” value with Erysiphe cichoracearum was 0%.
In the case of `CCCCC(C#N)(CCc1ccc(OCC)cc1)c1cccnc1.Cl` (stereo not drawn) [Compound 42, α-butyl-4-ethoxy-α-(3-pyridinyl)-benzenebutanenitrile hydrochloride], in the assay with Rhizoctonia solani, the “Percent Growth Inhibition, RHI SOL” value is 32%. The “Percent Reduction of Disease, BMS” value with Erysiphe graminis [1] worked out at 0%. The “Percent Growth Inhibition, SEP NOD” value with Septoria nodorum is given as 100%. Also, the “Percent Reduction of Disease, ERY GRA” value in the assay on Erysiphe graminis [2] is given as 92%. Further, in assay [3], the “CER PER inhibition score” value is 0. Further, the “Percent Reduction of Disease, CMS” value with Erysiphe cichoracearum was 0%. For the same compound, the “Percent Reduction of Disease, HEL SAT” value in the assay with Helminthosporium sativum was 100%. Also, the “Percent Reduction of Disease, PYR ORY” value with Pyricularia oryzae (barley, foliar, 1,000 mg/l) was determined as 67%. Moreover, in the assay with Fusarium oxysporum, the “Percent Growth Inhibition, FUS OXY” value is reported as 100%.
On to `CCOc1ccc(CCC(C#N)(CC(C)C)c2cccnc2)cc1` (stereo not drawn) [Compound 43], for which the values for the inhibition at 500 µg/mL with Rhizoctonia solani, with Septoria nodorum and with Fusarium oxysporum were 48%, 100% and 100%, respectively. Further, the “Percent Reduction of Disease, BMS” value in the assay with Erysiphe graminis [1] turned out to be 0%. For the same compound, the values for the pest or weed control at 1000 µg/mL in the assay with Erysiphe graminis [2], with Helminthosporium sativum and in the assay with Pyricularia oryzae were 92%, 100% and 100%, respectively. Also, in assay [3], the “CER PER inhibition score” value amounted to 100. Also, the “Percent Reduction of Disease, CMS” value in the assay on Erysiphe cichoracearum is 0%.
For the compound `CCCCCCC(C#N)(CCc1ccc(OCC)cc1)c1cccnc1` (stereo not drawn) [Compound 44], the inhibition at 500 µg/mL with Rhizoctonia solani worked out at 30%; in the assay with Septoria nodorum, 100%; in the assay on Fusarium oxysporum it was 8%. For the same compound, in the assay with Erysiphe graminis [1], the “Percent Reduction of Disease, BMS” value was determined as 0%. In addition, the pest or weed control at 1000 µg/mL in the assay with Erysiphe graminis [2] turned out to be 83%; with Helminthosporium sativum, 100%; in the assay with Pyricularia oryzae it was 17%. Further, the “CER PER inhibition score” value in assay [3] is reported as 100. Further, in the assay on Erysiphe cichoracearum, the “Percent Reduction of Disease, CMS” value turned out to be 0%.
For `CCCCCCC(C#N)(CCc1ccc(F)cc1)c1cccnc1` (stereo not drawn) [Compound 45], the inhibition at 500 µg/mL in the assay with Rhizoctonia solani was 6%; in the assay with Septoria nodorum, 100%; in the assay on Fusarium oxysporum it was 14%. Moreover, the “Percent Reduction of Disease, BMS” value in the assay with Erysiphe graminis [1] is 0%. The pest or weed control at 1000 µg/mL in the assay with Erysiphe graminis [2] was 92%; in the assay on Helminthosporium sativum it was 100%; with Pyricularia oryzae, 17%. In addition, in assay [3], the “CER PER inhibition score” value is recorded as 100. In addition, in the assay on Erysiphe cichoracearum, the “Percent Reduction of Disease, CMS” value was found to be 67%.
For `CCCC(C#N)(CCc1ccc(OCC)cc1)c1cccnc1` (stereo not drawn) [Compound 46], the inhibition at 500 µg/mL in the assay on Rhizoctonia solani stood at 8%; with Septoria nodorum, 100%; in the assay with Fusarium oxysporum, 100%. For the same compound, in the assay on Erysiphe graminis [1], the “Percent Reduction of Disease, BMS” value was found to be 0%. The pest or weed control at 1000 µg/mL is 92% in the assay with Erysiphe graminis [2], 100% in the assay with Helminthosporium sativum and 0% with Pyricularia oryzae. Further, the “CER PER inhibition score” value in assay [3] is reported as 0. In addition, the “Percent Reduction of Disease, CMS” value with Erysiphe cichoracearum is 0%.
`CC(C)=CCC(C#N)(CCc1ccc(F)cc1)c1cccnc1` (stereo not drawn) [Compound 47]: the results for the inhibition at 500 µg/mL in the assay on Rhizoctonia solani, in the assay with Septoria nodorum and with Fusarium oxysporum were 45%, 100% and 50%, respectively. Further, the “Percent Reduction of Disease, BMS” value in the assay with Erysiphe graminis [1] was found to be 0%. For the same compound, the pest or weed control at 1000 µg/mL was determined as 70% in the assay with Erysiphe graminis [2], 100% in the assay on Helminthosporium sativum and 0% in the assay with Pyricularia oryzae. In addition, in assay [3], the “CER PER inhibition score” value was determined as 0. Further, the “Percent Reduction of Disease, CMS” value in the assay on Erysiphe cichoracearum was determined as 0%.
Regarding `COc1ccc(CCC(C#N)(CC=C(C)C)c2cccnc2)cc1` (stereo not drawn) [Compound 48], the inhibition at 500 µg/mL in the assay on Rhizoctonia solani worked out at 28%; in the assay with Septoria nodorum, 100%; in the assay with Fusarium oxysporum, 100%. Moreover, the “Percent Reduction of Disease, BMS” value in the assay with Erysiphe graminis [1] was 0%. In addition, the pest or weed control at 1000 µg/mL turned out to be 67% in the assay with Erysiphe graminis [2], 100% in the assay on Helminthosporium sativum and 33% with Pyricularia oryzae. Moreover, the “CER PER inhibition score” value in assay [3] stood at 50. For the same compound, in the assay on Erysiphe cichoracearum, the “Percent Reduction of Disease, CMS” value is 0%.
